The IC50 is the concentration at which inhibition is half-maximal. A low value points to inhibition by little substance.

One assay addresses BRM (Homo sapiens, UniProt P51531). Briefly: ATPase catalytic activity of BRM (ADP-Glo in vitro biochemical assay). The note with it: for BRM Max % Inhibition: Table 6. On the technique in general: ADP-Glo first removes unused ATP, then detects ADP through luciferase.
The target of another assay is BRG-1 (Homo sapiens, UniProt P51532). The assay is described as follows: ATPase catalytic activity of BRG-1 (ADP-Glo in vitro biochemical assay). The note with it: for BRG1 Max % Inhibition: Table 6.
BRG-1, sequence (P51532 whole entry): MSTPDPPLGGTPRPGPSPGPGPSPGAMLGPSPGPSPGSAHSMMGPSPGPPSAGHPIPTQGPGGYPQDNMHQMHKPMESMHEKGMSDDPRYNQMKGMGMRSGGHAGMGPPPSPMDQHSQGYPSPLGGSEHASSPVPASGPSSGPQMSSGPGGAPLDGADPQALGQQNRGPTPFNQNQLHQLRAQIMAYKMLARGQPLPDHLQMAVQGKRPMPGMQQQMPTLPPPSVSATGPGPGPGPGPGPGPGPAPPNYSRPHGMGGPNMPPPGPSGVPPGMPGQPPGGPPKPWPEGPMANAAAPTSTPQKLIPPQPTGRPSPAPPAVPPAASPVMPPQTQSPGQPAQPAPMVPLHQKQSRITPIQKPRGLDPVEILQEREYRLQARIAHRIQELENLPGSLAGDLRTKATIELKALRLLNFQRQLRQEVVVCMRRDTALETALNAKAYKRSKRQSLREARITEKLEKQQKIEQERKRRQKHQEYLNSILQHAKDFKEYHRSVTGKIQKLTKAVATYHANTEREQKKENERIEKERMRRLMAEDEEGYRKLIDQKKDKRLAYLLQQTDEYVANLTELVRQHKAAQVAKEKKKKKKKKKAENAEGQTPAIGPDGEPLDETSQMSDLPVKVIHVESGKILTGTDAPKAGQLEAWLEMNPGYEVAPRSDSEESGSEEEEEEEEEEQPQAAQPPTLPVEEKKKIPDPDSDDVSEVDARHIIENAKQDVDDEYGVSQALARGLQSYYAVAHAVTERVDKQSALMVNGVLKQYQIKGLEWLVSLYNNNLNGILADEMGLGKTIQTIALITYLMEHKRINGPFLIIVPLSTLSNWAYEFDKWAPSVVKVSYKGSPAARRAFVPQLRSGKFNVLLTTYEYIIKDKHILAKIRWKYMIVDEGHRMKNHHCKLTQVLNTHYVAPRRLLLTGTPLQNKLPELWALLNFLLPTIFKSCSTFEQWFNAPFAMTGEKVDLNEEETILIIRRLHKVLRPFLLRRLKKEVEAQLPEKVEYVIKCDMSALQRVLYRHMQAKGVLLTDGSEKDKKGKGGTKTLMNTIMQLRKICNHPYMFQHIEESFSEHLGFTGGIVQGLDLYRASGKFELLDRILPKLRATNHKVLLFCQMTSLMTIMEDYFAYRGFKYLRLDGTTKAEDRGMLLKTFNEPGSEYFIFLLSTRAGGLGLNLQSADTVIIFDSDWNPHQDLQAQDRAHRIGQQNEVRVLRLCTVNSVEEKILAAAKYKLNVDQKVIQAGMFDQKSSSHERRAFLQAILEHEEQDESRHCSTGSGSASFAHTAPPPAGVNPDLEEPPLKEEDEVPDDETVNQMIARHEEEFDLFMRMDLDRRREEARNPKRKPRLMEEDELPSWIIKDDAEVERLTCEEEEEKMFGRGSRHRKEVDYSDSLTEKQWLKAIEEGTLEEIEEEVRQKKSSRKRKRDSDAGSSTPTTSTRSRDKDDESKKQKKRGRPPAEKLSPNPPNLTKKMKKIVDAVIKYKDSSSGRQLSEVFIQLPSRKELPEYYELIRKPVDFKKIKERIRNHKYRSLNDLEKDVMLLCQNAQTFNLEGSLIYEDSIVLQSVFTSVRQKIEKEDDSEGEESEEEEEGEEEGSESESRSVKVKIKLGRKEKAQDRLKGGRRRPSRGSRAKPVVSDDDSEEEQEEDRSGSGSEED

BRM, sequence (P51531 whole entry): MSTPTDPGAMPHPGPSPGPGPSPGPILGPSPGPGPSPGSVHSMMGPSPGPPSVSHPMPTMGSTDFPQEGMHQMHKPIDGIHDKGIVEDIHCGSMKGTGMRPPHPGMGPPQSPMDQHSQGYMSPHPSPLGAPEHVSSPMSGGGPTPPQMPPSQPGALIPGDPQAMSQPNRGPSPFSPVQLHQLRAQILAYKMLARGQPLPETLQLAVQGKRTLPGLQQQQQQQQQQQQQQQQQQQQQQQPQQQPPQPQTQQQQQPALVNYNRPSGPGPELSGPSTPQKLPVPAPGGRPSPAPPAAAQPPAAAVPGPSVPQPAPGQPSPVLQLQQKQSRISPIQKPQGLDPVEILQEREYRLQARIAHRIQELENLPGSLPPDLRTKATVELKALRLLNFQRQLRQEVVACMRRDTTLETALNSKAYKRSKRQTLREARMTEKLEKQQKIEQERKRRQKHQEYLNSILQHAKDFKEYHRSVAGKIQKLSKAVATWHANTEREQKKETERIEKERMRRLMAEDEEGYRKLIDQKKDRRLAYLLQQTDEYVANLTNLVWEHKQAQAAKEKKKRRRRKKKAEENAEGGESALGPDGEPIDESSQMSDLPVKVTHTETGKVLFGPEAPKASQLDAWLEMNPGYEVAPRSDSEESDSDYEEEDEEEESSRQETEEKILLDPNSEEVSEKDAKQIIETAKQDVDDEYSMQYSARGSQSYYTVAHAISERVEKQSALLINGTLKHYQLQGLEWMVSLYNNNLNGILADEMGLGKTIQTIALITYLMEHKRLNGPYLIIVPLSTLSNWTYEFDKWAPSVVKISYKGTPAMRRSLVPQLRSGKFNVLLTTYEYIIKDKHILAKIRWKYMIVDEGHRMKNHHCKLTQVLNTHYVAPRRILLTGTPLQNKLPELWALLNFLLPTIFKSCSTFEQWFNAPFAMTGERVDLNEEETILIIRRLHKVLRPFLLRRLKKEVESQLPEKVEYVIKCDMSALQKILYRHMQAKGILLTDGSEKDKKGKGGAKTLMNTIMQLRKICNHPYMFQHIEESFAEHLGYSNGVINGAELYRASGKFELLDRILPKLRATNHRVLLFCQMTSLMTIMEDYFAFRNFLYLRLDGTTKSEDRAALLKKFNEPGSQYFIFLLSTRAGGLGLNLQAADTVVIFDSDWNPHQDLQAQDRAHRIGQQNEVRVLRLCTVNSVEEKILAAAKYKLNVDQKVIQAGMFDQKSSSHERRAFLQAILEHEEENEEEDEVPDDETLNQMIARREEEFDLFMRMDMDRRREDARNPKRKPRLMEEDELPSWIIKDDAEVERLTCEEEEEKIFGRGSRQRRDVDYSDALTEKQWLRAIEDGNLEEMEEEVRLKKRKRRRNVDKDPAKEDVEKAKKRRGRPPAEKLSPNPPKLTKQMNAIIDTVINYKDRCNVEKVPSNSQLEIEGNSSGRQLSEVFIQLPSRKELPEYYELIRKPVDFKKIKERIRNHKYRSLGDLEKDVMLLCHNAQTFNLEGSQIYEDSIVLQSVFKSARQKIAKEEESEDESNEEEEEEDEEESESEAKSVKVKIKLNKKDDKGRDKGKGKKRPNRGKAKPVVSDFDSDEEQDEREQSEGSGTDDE

As for `Cn1cnc2ccc(-c3csc(NC(=O)CNC(=O)c4cccc(S(C)(=O)=O)c4)n3)cc2c1=O` [Compound 93, N-(2-((4-(3-methyl-4-oxo-3,4-dihydroquinazolin-6-yl)thiazol-2-yl)amino)-2-oxoethyl)-3-(methylsulfonyl)benzamide], at BRM, the half-maximal inhibitory concentration (IC50) is 0.1 to 1 µM and the “BRM Max % Inhibition” value is over 90%. Also, at BRG-1, the half-inhibitory concentration (IC50) was in the range of 0.1 to 1 µM and the “BRG1 Max % Inhibition” value was over 90%.
`CS(=O)(=O)NCc1cccc(-c2csc(NC(=O)CNC(=O)c3cccc(S(C)(=O)=O)c3)n2)c1` [Compound 94, N-(2-((4-(3-(methylsulfonamidomethyl)phenyl)thiazol-2-yl)amino)-2-oxoethyl)-3-(methylsulfonyl)benzamide]: on BRM, the 50% inhibitory concentration (IC50) lay within 0.1 to 1 µM and the “BRM Max % Inhibition” value is given as over 95%. At BRG-1, the IC50 fell in the range of 1 to 10 µM and the “BRG1 Max % Inhibition” value is reported as over 90%.
The corresponding values for `O=C(CNC(=O)c1ccc2c(c1)CCN2)Nc1nc(-c2cccc(-c3ccncc3)c2)cs1` [Compound 95, N-(2-oxo-2-((4-(3-(pyridin-4-yl)phenyl)thiazol-2-yl)amino)ethyl)indoline-5-carboxamide] are under 0.1 µM, over 95%, under 0.1 µM and over 95%.
For `O=C(CNC(=O)c1ccc2[nH]ncc2c1)Nc1nc(-c2cccc(-c3ccncc3)c2)cs1` [Compound 96, N-(2-oxo-2-((4-(3-(pyridin-4-yl)phenyl)thiazol-2-yl)amino)ethyl)-1H-indazole-5-carboxamide] the same measures were 0.1 to 1 µM, over 70%, 1 to 10 µM and over 70%.
For `CSCC[C@H](NC(=O)c1ccccc1)C(=O)Nc1nc(-c2cccc(-c3ccncc3)c2)cs1` [Compound 97, (S)-N-(4-(methylthio)-1-oxo-1-((4-(3-(pyridin-4-yl)phenyl)thiazol-2-yl)amino)butan-2-yl)benzamide] the same measures were 0.1 to 1 µM, over 70%, 0.1 to 1 µM and over 70%.
Consider `CS(=O)(=O)c1cccc(C(=O)NCC(=O)Nc2nc(-c3cccc(-c4nccs4)c3)cs2)c1` [Compound 98, 3-(methylsulfonyl)-N-(2-oxo-2-((4-(3-(thiazol-2-yl)phenyl)thiazol-2-yl)amino)ethyl)benzamide], for which, on BRM, the IC50 lay within 0.1 to 1 µM and the “BRM Max % Inhibition” value is reported as over 90%. On BRG-1, the IC50 was 0.1 to 1 µM and the “BRG1 Max % Inhibition” value is listed as over 70%.
As for `O=C(CNC(=O)c1ccc2c(c1)CCCN2)Nc1nc(-c2cccc(-c3ccncc3)c2)cs1` [Compound 99, N-(2-oxo-2-((4-(3-(pyridin-4-yl)phenyl)thiazol-2-yl)amino)ethyl)-1,2,3,4-tetrahydroquinoline-6-carboxamide], at BRM, the IC50 was under 0.1 µM and the “BRM Max % Inhibition” value is given as over 90%. Besides, on BRG-1, the IC50 is under 0.1 µM and the “BRG1 Max % Inhibition” value was over 95%.
On to `NCc1ccc(C(=O)NCC(=O)Nc2nc(-c3cccc(-c4ccncc4)c3)cs2)cc1` [Compound 100, 4-(aminomethyl)-N-(2-oxo-2-((4-(3-(pyridin-4-yl)phenyl)thiazol-2-yl)amino)ethyl)benzamide], for which, at BRM, the IC50 was 0.1 to 1 µM and the “BRM Max % Inhibition” value is given as over 80%. On BRG-1, the IC50 lay within 1 to 10 µM and the “BRG1 Max % Inhibition” value was over 80%.
On to `O=C(CNC(=O)c1ccc2cncn2c1)Nc1nc(-c2cccc(-c3ccncc3)c2)cs1` [Compound 101, N-(2-oxo-2-((4-(3-(pyridin-4-yl)phenyl)thiazol-2-yl)amino)ethyl)imidazo[1,5-a]pyridine-6-carboxamide], for which, at BRM, the half-inhibitory concentration (IC50) is 0.1 to 1 µM and the “BRM Max % Inhibition” value was over 95%. Also, at BRG-1, the IC50 was in the range of 0.1 to 1 µM and the “BRG1 Max % Inhibition” value is over 95%.
Take `O=C(CNC(=O)c1cnc2c(c1)CCCN2)Nc1nc(-c2cccc(-c3ccncc3)c2)cs1` [Compound 102, N-(2-oxo-2-((4-(3-(pyridin-4-yl)phenyl)thiazol-2-yl)amino)ethyl)-5,6,7,8-tetrahydro-1,8-naphthyridine-3-carboxamide]: at BRM, the IC50 lay within 0.1 to 1 µM and the “BRM Max % Inhibition” value is over 80%. For the same compound, at BRG-1, the half-maximal inhibitory concentration (IC50) lay in the range of 0.1 to 1 µM and the “BRG1 Max % Inhibition” value is over 80%.
Take `O=C(CNC(=O)c1ccc(N2CC(O)C2)cc1)Nc1nc(-c2cccc(-c3ccncc3)c2)cs1` [Compound 103, 4-(3-hydroxyazetidin-1-yl)-N-(2-oxo-2-((4-(3-(pyridin-4-yl)\phenyl)thiazol-2-yl)amino)ethyl)benzamide]: on BRM, the IC50 lay in the range of 0.1 to 1 µM and the “BRM Max % Inhibition” value is recorded as over 70%. Further, at BRG-1, the IC50 is 1 to 10 µM and the “BRG1 Max % Inhibition” value was over 80%.
The corresponding values for `CS(=O)(=O)c1ccnc(C(=O)NCC(=O)Nc2nc(-c3cccc(-c4ccncc4)c3)cs2)c1` [Compound 104, 4-methylsulfonyl-N-[2-oxo-2-[[4-[3-(4-pyridyl)phenyl]thiazol-2-yl]amino]ethyl]pyridine-2-carboxamide] are under 0.1 µM, over 70%, under 0.1 µM and over 60%.
For `O=C(CNC(=O)c1ccc2c(c1)CC(O)CN2)Nc1nc(-c2cccc(-c3ccncc3)c2)cs1` (centres unmarked) [Compound 105, 3-hydroxy-N-[2-oxo-2-[[4-[3-(4-pyridyl)phenyl]thiazol-2-yl]amino]ethyl]-1,2,3,4-tetrahydroquinoline-6-carboxamide] the same measures were 0.1 to 1 µM, over 80%, 0.1 to 1 µM and over 50%.
The corresponding values for `CSCC[C@H](NC(=O)c1ccc(N)cc1)C(=O)Nc1nc(-c2ccc(C#N)cc2)cs1` [Compound 107, (S)-4-amino-N-(1-((4-(4-cyanophenyl)thiazol-2-yl)amino)-4-(methylthio)-1-oxobutan-2-yl)benzamide] are 0.1 to 1 µM, over 95%, 1 to 10 µM and over 95%.
Take `Nc1ccc(C(=O)NCC(=O)Nc2nc(-c3ccc4c(c3)OCCO4)cs2)cc1` [Compound 109, 4-amino-N-(2-((4-(2,3-dihydrobenzo[b][1,4]dioxin-6-yl)thiazol-2-yl)amino)-2-oxoethyl)benzamide]: at BRM, the IC50 is 0.1 to 1 µM and the “BRM Max % Inhibition” value was over 90%. Further, on BRG-1, the IC50 is 0.1 to 1 µM and the “BRG1 Max % Inhibition” value is over 90%.
For `COC(=O)N1CCC=C(c2csc(NC(=O)CNC(=O)c3ccc(N)cc3)n2)C1` [Compound 110, methyl 3-(2-(2-(4-aminobenzamido)acetamido)thiazol-4-yl)-5,6-dihydropyridine-1(2H)-carboxylate], at BRM, the IC50 was in the range of 0.1 to 1 µM and the “BRM Max % Inhibition” value was over 80%. Besides, at BRG-1, the half-inhibitory concentration (IC50) was 1 to 10 µM and the “BRG1 Max % Inhibition” value was over 80%.
For the compound `Nc1ccc(C(=O)NCC(=O)Nc2nc(-c3ccc4c(c3)CCO4)cs2)cc1` [Compound 111, 4-amino-N-(2-((4-(2,3-dihydrobenzofuran-5-yl)thiazol-2-yl)amino)-2-oxoethyl)benzamide], on BRM, the IC50 fell in the range of 0.1 to 1 µM and the “BRM Max % Inhibition” value was over 90%. On BRG-1, the IC50 was 0.1 to 1 µM and the “BRG1 Max % Inhibition” value is on record as over 90%.
For the compound `Nc1ccc(C(=O)NCC(=O)Nc2nc(-c3ccc4c(c3)OCC4)cs2)cc1` [Compound 112, 4-amino-N-(2-((4-(2,3-dihydrobenzofuran-6-yl)thiazol-2-yl)amino)-2-oxoethyl)benzamide], at BRM, the IC50 is 0.1 to 1 µM and the “BRM Max % Inhibition” value was over 90%. Besides, at BRG-1, the IC50 lay within 0.1 to 1 µM and the “BRG1 Max % Inhibition” value is given as over 80%.
Take `Nc1ccc(C(=O)NCC(=O)Nc2nc(-c3ccccc3O)cs2)cc1` [Compound 114, 4-amino-N-(2-((4-(2-hydroxyphenyl)thiazol-2-yl)amino)-2-oxoethyl)benzamide]: on BRM, the IC50 was 0.1 to 1 µM and the “BRM Max % Inhibition” value is recorded as over 80%. In addition, on BRG-1, the IC50 lay within 1 to 10 µM and the “BRG1 Max % Inhibition” value is over 80%.
Take `Nc1ccc(C(=O)NCC(=O)Nc2nc(-c3ccc(O)cc3)cs2)cc1` [Compound 115, 4-amino-N-(2-((4-(4-hydroxyphenyl)thiazol-2-yl)amino)-2-oxoethyl)benzamide]: on BRM, the concentration for half-maximal inhibition (IC50) lay within 0.1 to 1 µM and the “BRM Max % Inhibition” value is given as over 90%. Also, on BRG-1, the IC50 is 0.1 to 1 µM and the “BRG1 Max % Inhibition” value was over 90%.
Take `CSCC[C@H](NC(=O)c1ccc(N)cc1)C(=O)Nc1nc(-c2cc(C#N)cc(-c3ccccc3)c2)cs1` [Compound 116, (S)-4-amino-N-(1-((4-(5-cyano-[1,1′-biphenyl]-3-yl)thiazol-2-yl)amino)-4-(methylthio)-1-oxobutan-2-yl)benzamide]: on BRM, the IC50 lay in the range of 0.1 to 1 µM and the “BRM Max % Inhibition” value is given as over 95%. In addition, on BRG-1, the IC50 lay in the range of 0.1 to 1 µM and the “BRG1 Max % Inhibition” value was over 95%.
Regarding `CSCC[C@H](NC(=O)c1ccc(N)cc1)C(=O)Nc1nc(-c2cccc(-c3ccc(CN)cc3)c2)cs1` [Compound 118, (S)-4-amino-N-(1-((4-(4′-(aminomethyl)-[1,1′-biphenyl]-3-yl)thiazol-2-yl)amino)-4-(methylthio)-1-oxobutan-2-yl)benzamide], at BRM, the IC50 was 0.1 to 1 µM and the “BRM Max % Inhibition” value is listed as over 90%. In addition, at BRG-1, the IC50 was 1 to 10 µM and the “BRG1 Max % Inhibition” value is over 90%.
Take `CSCC[C@H](NC(=O)c1ccc(N)cc1)C(=O)Nc1nc(-c2ccc(C#N)c(-c3ccccc3)c2)cs1` [Compound 119, (S)-4-amino-N-(1-((4-(6-cyano-[1,1′-biphenyl]-3-yl)thiazol-2-yl)amino)-4-(methylthio)-1-oxobutan-2-yl)benzamide]: on BRM, the IC50 lay within 0.1 to 1 µM and the “BRM Max % Inhibition” value is over 95%. On BRG-1, the IC50 was 1 to 10 µM and the “BRG1 Max % Inhibition” value is over 95%.
